According to patent US20220283500A1, “CHEMICALLY AMPLIFIED POSITIVE-TYPE PHOTOSENSITIVE RESIN COMPOSITION, PHOTOSENSITIVE DRY FILM, PRODUCTION METHOD FOR PHOTOSENSITIVE DRY FILM, PRODUCTION METHOD FOR PATTERNED RESIST FILM, COMPOUND, PHOTO-ACID GENERATOR, AND PRODUCTION METHOD FOR N-ORGANOSULFONYLOXY COMPOUND” (TOKYO OHKA KOGYO CO., LTD., priority 2019, published 2022):

Experiment: Evaluation of solubility of acid generator in PGMEA
Conditions: maximal concentration dissolved in propylene glycol monomethyl ether acetate (PGMEA)

For `CCCCc1ccc2c3c(cccc13)C(=O)N(OS(=O)(=O)C(F)(F)C(=O)OC)C2=O` [PAG-1], which “Solvent solubility of acid generator” value is on record?
The value was > 20% by mass.

For `CCCCc1ccc2c3c(cccc13)C(=O)N(OS(=O)(=O)C(F)(F)C(=O)OCCC1CCCCC1)C2=O` [PAG-2], which “Solvent solubility of acid generator” value is on record?
The value was > 20% by mass.

Which “Solvent solubility of acid generator” value does the source give for `O=C1c2cccc3cccc(c23)C(=O)N1OS(=O)(=O)C(F)(F)F` [PAG-5, reference compound] here?
Its value is < 1% by mass.

Which “Solvent solubility of acid generator” value does the source give for `CCCCc1ccc2c3c(cccc13)C(=O)N(OS(=O)(=O)C(F)(F)F)C2=O` [PAG-6, reference compound] here?
Its value is > 20% by mass.

For `COC(=O)C(F)(F)S(=O)(=O)ON1C(=O)c2cccc3cccc(c23)C1=O` [PAG-7], which “Solvent solubility of acid generator” value is on record?
Its value is 5% by mass.

For `O=C1c2cccc3cccc(c23)C(=O)N1OS(=O)(=O)C(F)(F)C(=O)OC1C2CC3OS(=O)(=O)C1C3C2` (stereo not drawn) [PAG-8], which “Solvent solubility of acid generator” value is on record?
Its value is < 1% by mass.

With `CCCCC(CC)COC(=O)CSc1ccc2c3c(cccc13)C(=O)N(OS(=O)(=O)C(F)(F)C(=O)OC)C2=O` (stereo not drawn) [PAG-9] as the molecule, how does the “Solvent solubility of acid generator” value read?
Its value is > 20% by mass.

With `CCCCC(CC)COC(=O)CSc1ccc2c3c(cccc13)C(=O)N(OS(=O)(=O)C(F)(F)C(=O)OCCC1CCCCC1)C2=O` (stereo not drawn) [PAG-10] as the molecule, how does the “Solvent solubility of acid generator” value read?
Its value is > 20% by mass.

With `CCCCC(CC)COC(=O)CSc1ccc2c3c(cccc13)C(=O)N(OS(=O)(=O)C(F)(F)C(=O)OCCC13CC4CC(CC(C4)C1)C3)C2=O` (stereo not drawn) [PAG-11] as the molecule, how does the “Solvent solubility of acid generator” value read?
Its value is > 20% by mass.

Which “Solvent solubility of acid generator” value does the source give for `CCCCC(CC)COC(=O)CSc1ccc2c3c(cccc13)C(=O)N(OS(=O)(=O)C(F)(F)C(=O)OC1C3CC4OS(=O)(=O)C1C4C3)C2=O` (stereo not drawn) [PAG-12] here?
The value was > 20% by mass.

With `CCCCC(Oc1cc2c3c(cccc3c1)C(=O)N(OS(=O)(=O)C(F)(F)C(=O)OC)C2=O)C(=O)O` (stereo not drawn) [PAG-13] as the molecule, how does the “Solvent solubility of acid generator” value read?
The value was 10% by mass.

Which “Solvent solubility of acid generator” value does the source give for `CCCCC(Oc1cc2c3c(cccc3c1)C(=O)N(OS(=O)(=O)C(F)(F)C(=O)OCCC1CCCCC1)C2=O)C(=O)O` (stereo not drawn) [PAG-14] here?
Its value is 10% by mass.

With `CCCCC(Oc1cc2c3c(cccc3c1)C(=O)N(OS(=O)(=O)C(F)(F)C(=O)OCCC13CC4CC(CC(C4)C1)C3)C2=O)C(=O)O` (stereo not drawn) [PAG-15] as the molecule, how does the “Solvent solubility of acid generator” value read?
Its value is 10% by mass.

For `CCCCC(Oc1cc2c3c(cccc3c1)C(=O)N(OS(=O)(=O)C(F)(F)C(=O)OC1C3CC4OS(=O)(=O)C1C4C3)C2=O)C(=O)O` (stereo not drawn) [PAG-16], which “Solvent solubility of acid generator” value is on record?
Its value is 10% by mass.

With `CCCCC(Oc1cc2c3c(cccc3c1)C(=O)N(OS(=O)(=O)C(F)(F)C(=O)OC)C2=O)C(=O)OC(C)(C)C` (stereo not drawn) [PAG-17] as the molecule, how does the “Solvent solubility of acid generator” value read?
The value was 15% by mass.

With `CCCCC(Oc1cc2c3c(cccc3c1)C(=O)N(OS(=O)(=O)C(F)(F)C(=O)OCCC1CCCCC1)C2=O)C(=O)OC(C)(C)C` (stereo not drawn) [PAG-18] as the molecule, how does the “Solvent solubility of acid generator” value read?
Its value is 15% by mass.

Which “Solvent solubility of acid generator” value does the source give for `CCCCC(Oc1cc2c3c(cccc3c1)C(=O)N(OS(=O)(=O)C(F)(F)C(=O)OCCC13CC4CC(CC(C4)C1)C3)C2=O)C(=O)OC(C)(C)C` (stereo not drawn) [PAG-19] here?
Its value is 15% by mass.

Which “Solvent solubility of acid generator” value does the source give for `COC(=O)C(F)(F)S(=O)(=O)ON1C(=O)c2cc(C(C)C)cc3ccc(C(C)C)c(c23)C1=O` [PAG-29] here?
Its value is 10% by mass.

Which “Solvent solubility of acid generator” value does the source give for `CC(C)c1cc2c3c(c(C(C)C)ccc3c1)C(=O)N(OS(=O)(=O)C(F)(F)C(=O)OCCC1CCCCC1)C2=O` [PAG-30] here?
The value was > 20% by mass.

Which “Solvent solubility of acid generator” value does the source give for `CC(C)c1cc2c3c(c(C(C)C)ccc3c1)C(=O)N(OS(=O)(=O)C(F)(F)C(=O)OCCC13CC4CC(CC(C4)C1)C3)C2=O` [PAG-31] here?
The value was > 20% by mass.

Which “Solvent solubility of acid generator” value does the source give for `CC(C)c1cc2c3c(c(C(C)C)ccc3c1)C(=O)N(OS(=O)(=O)C(F)(F)C(=O)OC1C3CC4OS(=O)(=O)C1C4C3)C2=O` (stereo not drawn) [PAG-32] here?
The value was 10% by mass.
